Holding throughout (type): in vivo
Assay [1] deals with Western flower thrips, Frankliniella occidentalis. Briefly: Cotton leaf punch dip bioassay on larval stage 2 nymphs of Western flower thrips (Examples 7A-7D). Particulars: Compound I alone, dose rate 0.04 weight %, treated cotton leaf punches. An excerpt: (§1) The method described in Colby S. R., “Calculating Synergistic and Antagonistic Responses of Herbicide Combinations,” Weeds, 1967, 15, 20-22 was used to determine an existence of synergic effect between the sulfoximine-based nAChR agonist compound and the pesticide (I), (II) or any agriculturally acceptable salt thereof in the formulated pesticidal composition. In this method, the percent insect control of the formulated pesticidal composition as observed in the study was compared to the “expected” percent control (E) as calculated by equation (1) (hereinafter “Colby's equation”) below: […]
The active compounds were formulated in a 10% acetone solution with 0.025% non-ionic surfactant, TWEEN® 20. Cotton leaf punches were used for bioassays. Two cotton leaf punches were placed in each solution and left there for 10 minutes. Leaves were taken out of the solution, placed on a piece of filter paper in separated Petri dishes, and air dried. Each leaf disc was considered a repetition. Five larval stage 2 nymphs of Western flower thrips, Frankliniella occidentalis, were infested per repetition.

Assay [2] deals with South American brown stink bug, Euschistus heros. Put plainly: Bean-piece dip bioassay on third-instar nymphs of South American brown stink bug (Example 6). The settings on record: Compound I alone, dose rate 0.04 weight %, treated bean pieces.
Source text: as §1
The active compounds were formulated in a 10% acetone solution with 0.025% non-ionic surfactant, TWEEN® 20. Bioassays were performed for each different active solution. Bean pieces (about one inch-long) were used for the tests. Four bean pieces were placed in each tested active solution and left there for 10 minutes. Bean pieces were taken out of the active solution, and each piece was placed in a well in a 32-well tray and allowed to air dry. Three third-instar nymphs of South American brown stink bug, Euschistus heros, were infested into each well.

Assay [3] deals with brown stink bug, Euschistus heros. Put plainly: Diet-treatment bioassay on second-instar nymphs of brown stink bug (Examples 5A, 5B). Particulars: Compound II alone, dose rate 0.04 weight %, applied to diet.
Source text: as §1
The percent control of the pesticidal composition against brown stink bug, Euschistus heros, was determined as the “Observed” action, and compared to those obtained by using about 0.04 weight % of Compound II, and using about 0.000156 weight % of sulfoxaflor alone. The “Colby's Expected Action” was calculated using Colby's equation as discussed previously.

In the case of `CCN(C(=O)CCSCCC(F)(F)F)c1cn(-c2cccnc2)nc1Cl` [Compound I, N-(3-chloro-1-(pyridin-3-yl)-1H-pyrazol-4-yl)-N-ethyl-3-((3,3,3-trifluoropropyl)thio)propanamide], the “% Control Three Days After Treatment” value in assay [1] came to 0%. In addition, the “% Control Four Days After Treatment” value in assay [2] is listed as 0%.

Consider `CCN(C(=O)CC[S+]([O-])CCC(F)(F)F)c1cn(-c2cccnc2)nc1Cl` (stereo not drawn) [Compound II, N-(3-chloro-1-(pyridin-3-yl)-1H-pyrazol-4-yl)-N-ethyl-3-((3,3,3-trifluoropropyl)sulfinyl)propanamide], for which, in assay [3], the “% Control Six Days After Treatment” value is given as “no control”.

For the origin of these results see patent US9788545B2, “Synergistic pesticidal compositions and related methods” (Dow AgroSciences LLC, priority 2013, dated 2017).
